Pest or weed control data for 15 molecules are collected here from US20210053957A1, “HERBICIDAL COMPOUNDS” (SYNGENTA PARTICIPATIONS AG, priority 2018, published 2021).

Common to all, as to assay: Post-emergence efficacy, glasshouse spray test
What all share (type): in vivo

In assay [1] the test system is Echinochloa crus-galli (ECHCG). Particulars: Echinochloa crus-galli, post-emergence, 312 h; Application Rate 500 g/Ha; evaluated after 13 days; read-out: Control of weed species after post-emergence application, ECHCG (100=total damage to plant; 0=no damage to plant). The essentials: (§1)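 Treatment at 14 days after sowing with an aqueous spray made by diluting a 50 g/l stock (acetone + IF50: Emulsogen EL360, N-methyl pyrrolidone, Dowanol DPM) in surfactant plus ammonium sulphate. Damage scored 0–100 after 13 days.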

Assay [2] has as its system Amaranthus palmeri (AMAPA). Conditions: Amaranthus palmeri, post-emergence, 312 h; Application Rate 500 g/Ha; evaluated after 13 days; read-out: Control of weed species after post-emergence application, AMAPA (100=total damage to plant; 0=no damage to plant). In a few lines: as §1
For assay [3], the system named is Digitaria sanguinalis (DIGSA). Particulars: Digitaria sanguinalis, post-emergence, 312 h; Application Rate 500 g/Ha; evaluated after 13 days; read-out: Control of weed species after post-emergence application, DIGSA (100=total damage to plant; 0=no damage to plant). The essentials:
as §1

In a further assay the test system is Lolium perenne (LOLPE). Conditions: Lolium perenne, post-emergence, 312 h; Application Rate 500 g/Ha; evaluated after 13 days; read-out: Control of weed species after post-emergence application, LOLPE (100=total damage to plant; 0=no damage to plant). The essentials:
as §1

A further assay has as its system Eleusine indica (ELEIN). Conditions: Eleusine indica, post-emergence, 312 h; Application Rate 500 g/Ha; evaluated after 13 days; read-out: Control of weed species after post-emergence application, ELEIN (100=total damage to plant; 0=no damage to plant). In a few lines: as §1
The test system of assay [4] is Ipomoea hederacea (IPOHE). Conditions: Ipomoea hederacea, post-emergence, 312 h; Application Rate 500 g/Ha; evaluated after 13 days; read-out: Control of weed species after post-emergence application, IPOHE (100=total damage to plant; 0=no damage to plant). The essentials:
as §1

The test system of assay [5] is Chenopodium album (CHEAL). Conditions: Chenopodium album, post-emergence, 312 h; Application Rate 500 g/Ha; evaluated after 13 days; read-out: Control of weed species after post-emergence application, CHEAL (100=total damage to plant; 0=no damage to plant). In a few lines:
as §1

For assay [6], the system named is Euphorbia heterophylla (EPHHL). Particulars: Euphorbia heterophylla, post-emergence, 312 h; Application Rate 500 g/Ha; evaluated after 13 days; read-out: Control of weed species after post-emergence application, EPHHL (100=total damage to plant; 0=no damage to plant). The essentials: as §1
Another assay deals with Setaia fabei (SETFA). Particulars: Setaria faberi, post-emergence, 312 h; Application Rate 500 g/Ha; evaluated after 13 days; read-out: Control of weed species after post-emergence application, SETFA (100=total damage to plant; 0=no damage to plant). In a few lines: as §1

Each structure is given as a SMILES string.

Regarding `CCOC(=O)c1coc(-c2cc[n+](CCC(=O)O)nc2)n1` [Compound A126], the pest or weed control at 500 g/ha in assay [1] was 60%; in assay [2], 90%; in assay [3] it was 90%; in the assay on Lolium perenne (LOLPE), 60%; in the assay on Eleusine indica (ELEIN), 90%; in assay [4] it was 30%. For the same molecule, the pest or weed control at 500 g/ha (in assay [5]; in [6]; in the assay with Setaia fabei (SETFA)) was 70% each time.
On to `CNC(=O)c1coc(-c2cc[n+](CCC(=O)O)nc2)n1` [Compound A127], for which the pest or weed control at 500 g/ha in assay [1] was 80%; in assay [2], 100%; in assay [3] it was 90%; with Lolium perenne (LOLPE) it was 20%; in the assay with Eleusine indica (ELEIN), 70%; in assay [4], 60%. In addition, the pest or weed control at 500 g/ha was 100% in assay [5], 70% in assay [6] and 70% with Setaia fabei (SETFA).
Regarding `COC(=O)CCC[n+]1ccc(-c2nc(C)co2)cn1` [Compound A128], the pest or weed control at 500 g/ha in assay [1] is 80%; in assay [2] it was 90%; in [3], 90%; with Lolium perenne (LOLPE), 60%; with Eleusine indica (ELEIN), 100%; in assay [4], 20%. In addition, the pest or weed control at 500 g/ha in assay [5] was determined as 20%; in assay [6], 70%; in the assay with Setaia fabei (SETFA), 90%.
As to `CNC(=O)c1oc(-c2cc[n+](CCC(=O)O)nc2)nc1C` [Compound A129], the pest or weed control at 500 g/ha in assay [1] stood at 60%; in assay [2], 100%; in [3] it was 70%; in the assay with Lolium perenne (LOLPE), 60%; with Eleusine indica (ELEIN), 90%; in assay [4], 80%. Besides, the pest or weed control at 500 g/ha in assay [5] was found to be 70%; in [6], 90%; in the assay on Setaia fabei (SETFA), 100%.
Regarding `CCOC(=O)c1oc(-c2cc[n+](CCC(=O)O)nc2)nc1C` [Compound A130], the pest or weed control at 500 g/ha is 60% in assay [1]; 100% in assay [2]; 60% in assay [3]; 50% in the assay on Lolium perenne (LOLPE); 80% in the assay with Eleusine indica (ELEIN); 50% in [4]. The pest or weed control at 500 g/ha in [5] was found to be 50%; in assay [6], 100%; with Setaia fabei (SETFA), 30%.
With `CCOC(=O)c1oc(-c2cc[n+](CCC(=O)OC)nc2)nc1C` [Compound A131], the pest or weed control at 500 g/ha came out at 20% in assay [1]; 10% in assay [2]; 30% in [3]; 10% with Lolium perenne (LOLPE); 10% in the assay on Eleusine indica (ELEIN); 10% in assay [4]. The pest or weed control at 500 g/ha in assay [5] was 0%; in [6], 10%; with Setaia fabei (SETFA), 20%.
For the molecule `Cc1coc(-c2cc[n+](CC(=O)O)nc2)n1` [Compound A132], the pest or weed control at 500 g/ha in assay [1] worked out at 90%; in assay [2], 90%; in [3] it was 90%; in the assay on Lolium perenne (LOLPE), 50%; in the assay with Eleusine indica (ELEIN), 90%; in [4], 10%. The pest or weed control at 500 g/ha in assay [5] came to 70%; in assay [6], 70%; with Setaia fabei (SETFA) it was 80%.
In the case of `COC(=O)C[n+]1ccc(-c2nc(C)co2)cn1` [Compound A133], the pest or weed control at 500 g/ha in [1] amounted to 10%; in assay [2] it was 0%; in assay [3], 20%; in the assay with Lolium perenne (LOLPE), 0%; in the assay with Eleusine indica (ELEIN) it was 10%; in assay [4] it was 10%. For the same molecule, the pest or weed control at 500 g/ha (in assay [5]; in assay [6]; in the assay with Setaia fabei (SETFA)) was 0% throughout.
Consider `Cc1coc(-c2cc[n+](CCOS(=O)(=O)[O-])nc2)n1` [Compound A134], for which the pest or weed control at 500 g/ha is 70% in assay [1]; 90% in [2]; 60% in assay [3]; 40% in the assay on Lolium perenne (LOLPE); 80% in the assay on Eleusine indica (ELEIN); 50% in assay [4]. Further, the pest or weed control at 500 g/ha in [5] worked out at 30%; in [6], 70%; in the assay with Setaia fabei (SETFA) it was 70%.
As for `Cc1coc(-c2cc[n+](CCCC(=O)O)nc2)n1` [Compound A135], the pest or weed control at 500 g/ha in [1] is 90%; in [2] it was 90%; in assay [3], 90%; in the assay on Lolium perenne (LOLPE), 40%; in the assay with Eleusine indica (ELEIN), 80%; in assay [4], 10%. In addition, the pest or weed control at 500 g/ha in assay [5] turned out to be 20%; in assay [6] it was 90%; in the assay with Setaia fabei (SETFA), 90%.
`Cc1coc(-c2cc[n+](CCCS(=O)(=O)[O-])nc2)n1` [Compound A136]: the pest or weed control at 500 g/ha in assay [1] amounted to 40%; in assay [2] it was 70%; in assay [3] it was 70%; with Lolium perenne (LOLPE) it was 60%; in the assay with Eleusine indica (ELEIN), 60%; in [4], 20%. In addition, the pest or weed control at 500 g/ha in [5] came to 30%; in assay [6] it was 70%; in the assay on Setaia fabei (SETFA) it was 80%.
For `CNC(=O)c1oc(-c2cc[n+](CCC(=O)OC)nc2)nc1C` [Compound A137], the pest or weed control at 500 g/ha in [1] came out at 40%; in assay [2] it was 20%; in assay [3], 50%; in the assay on Lolium perenne (LOLPE) it was 10%; in the assay with Eleusine indica (ELEIN) it was 30%; in assay [4] it was 10%. For the same molecule, the pest or weed control at 500 g/ha stood at 10% in assay [5], 20% in assay [6] and 30% with Setaia fabei (SETFA).
Regarding `O=C(O)CC[n+]1ccc(-c2cnns2)cn1` [Compound A138], the pest or weed control at 500 g/ha in [1] amounted to 40%; in assay [2], 90%; in assay [3] it was 60%; in the assay with Lolium perenne (LOLPE) it was 0%; with Eleusine indica (ELEIN) it was 70%; in assay [4], 70%. The pest or weed control at 500 g/ha in [5] amounted to 40%; in assay [6] it was 100%; in the assay with Setaia fabei (SETFA) it was 30%.
Take `O=C(O)CC[n+]1ccc(-c2csnn2)cn1` [Compound A139, 3-[4-(thiadiazol-4-yl)pyridazin-1-ium-1-yl]propanoic acid 2,2,2-trifluoroacetate]: the pest or weed control at 500 g/ha stood at 60% in assay [1]; 80% in [2]; 70% in assay [3]; 10% in the assay on Lolium perenne (LOLPE); 70% in the assay with Eleusine indica (ELEIN); 60% in assay [4]. For the same molecule, the values for the pest or weed control at 500 g/ha (in [5]; in assay [6]; in the assay on Setaia fabei (SETFA)) were 70%, 100% and 60%, respectively.
As for `Cc1nnc(-c2cc[n+](CCC(=O)O)nc2)o1` [Compound A140], the pest or weed control at 500 g/ha is 20% in assay [1]; 10% in assay [2]; 70% in [3]; 10% in the assay on Lolium perenne (LOLPE); 90% in the assay with Eleusine indica (ELEIN); 0% in assay [4]. Also, the pest or weed control at 500 g/ha in assay [5] is 0%; in assay [6], 0%; with Setaia fabei (SETFA), 70%.
